Reference: US8853230B2, “Inhibitors of JAK” (Portola Pharmaceuticals, Inc., priority 2009, dated 2014)

How the values were obtained:
Type in all cases: biochemical
JAK1 = molecular target: T1, JAK1 (Homo sapiens, UniProt P23458); experiment: Z'-LYTE kinase assay, JAK1 tyrosine phosphorylation activity; conditions: read-out: JAK 1 IC50
T1 construct: 5 μl of catalytic domain recombinant Kinase enzyme+Tyr peptide substrate (Invitrogen, Calif.); purchased Invitrogen
In short: (§1)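 Catalytic domain + Tyr6 peptide + ATP + cpd (1% DMSO), 1 h RT; development protease 1 h RT; FRET ex 400/em 445, 520 nm; % phosphorylation vs no-inhibitor; IC50 by 4-parameter logistic; duplicates.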

JAK2 = molecular target: T2, JAK2 (Homo sapiens, UniProt O60674); experiment: Z'-LYTE kinase assay, JAK2 tyrosine phosphorylation activity
T2 construct: 5 μl of catalytic domain recombinant Kinase enzyme+Tyr peptide substrate (Invitrogen, Calif.); purchased Invitrogen
T2 sequence (O60674 849-1124 limits assumed): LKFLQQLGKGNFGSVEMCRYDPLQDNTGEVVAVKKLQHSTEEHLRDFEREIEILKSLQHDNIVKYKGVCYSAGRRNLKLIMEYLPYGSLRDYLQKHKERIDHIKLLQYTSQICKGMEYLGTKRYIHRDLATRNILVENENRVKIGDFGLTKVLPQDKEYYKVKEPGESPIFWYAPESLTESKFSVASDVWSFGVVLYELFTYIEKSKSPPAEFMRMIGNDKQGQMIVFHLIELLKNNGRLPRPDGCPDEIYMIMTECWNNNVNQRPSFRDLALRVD
In short: as §1

JAK3 = molecular target: T3, JAK3 (Homo sapiens, UniProt P52333); experiment: Z'-LYTE kinase assay, JAK3 tyrosine phosphorylation activity
T3 construct: 5 μl of catalytic domain recombinant Kinase enzyme+Tyr peptide substrate (Invitrogen, Calif.); purchased Invitrogen
T3 sequence (P52333 822-1111 limits assumed): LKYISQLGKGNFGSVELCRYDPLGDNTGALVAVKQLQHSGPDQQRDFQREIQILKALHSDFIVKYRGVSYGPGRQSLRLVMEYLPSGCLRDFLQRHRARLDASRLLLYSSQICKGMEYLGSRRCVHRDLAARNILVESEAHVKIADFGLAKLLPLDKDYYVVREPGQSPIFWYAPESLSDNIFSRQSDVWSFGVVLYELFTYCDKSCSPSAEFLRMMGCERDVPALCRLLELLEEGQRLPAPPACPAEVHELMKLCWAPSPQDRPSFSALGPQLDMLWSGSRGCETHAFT
In short: as §1

TYK2 = molecular target: T4, TYK2 (Homo sapiens, UniProt P29597); experiment: Z'-LYTE kinase assay, TYK2 tyrosine phosphorylation activity
T4 construct: 5 μl of catalytic domain recombinant Kinase enzyme+Tyr peptide substrate (Invitrogen, Calif.); purchased Invitrogen
T4 sequence (P29597 897-1176 limits assumed): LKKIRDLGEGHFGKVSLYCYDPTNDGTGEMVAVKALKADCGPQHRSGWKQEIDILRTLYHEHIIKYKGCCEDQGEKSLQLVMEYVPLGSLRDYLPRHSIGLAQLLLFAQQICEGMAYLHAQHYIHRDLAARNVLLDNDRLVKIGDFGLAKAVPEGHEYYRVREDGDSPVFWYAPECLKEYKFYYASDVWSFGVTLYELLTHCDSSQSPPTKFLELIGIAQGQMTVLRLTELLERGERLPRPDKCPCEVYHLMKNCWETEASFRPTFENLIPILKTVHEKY
In short: as §1

T1 sequence (P23458 875-1153 limits assumed): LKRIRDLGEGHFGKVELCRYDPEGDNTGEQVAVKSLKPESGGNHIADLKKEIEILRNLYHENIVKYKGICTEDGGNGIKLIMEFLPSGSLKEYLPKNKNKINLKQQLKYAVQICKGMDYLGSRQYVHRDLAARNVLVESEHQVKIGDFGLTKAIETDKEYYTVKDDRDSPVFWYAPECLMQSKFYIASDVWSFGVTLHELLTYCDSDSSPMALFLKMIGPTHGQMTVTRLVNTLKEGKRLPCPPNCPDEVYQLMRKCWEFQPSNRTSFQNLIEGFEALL

SMILES | IC50 (JAK1) [nM] | IC50 (JAK2) [nM] | IC50 (JAK3) [nM] | IC50 (TYK2) [nM]
C[C@@H](Nc1nc(Nc2ccc(Cl)c(NC(=O)N3CCOCC3)c2)ncc1C(N)=O)c1ccccc1 [Example 183, (R)—N-(5-(5-carbamoyl-4-(1-phenylethylamino)pyrimidin-2-ylamino)-2-chlorophenyl)morpholine-4-carboxamide] | 100 to 1000 | 10 to 100 | 1 to 10 | 10 to 100
CC(=O)Nc1cccc(Nc2ncc(C(N)=O)c(Nc3cccc4c3ccn4C)n2)c1 [Example 184, 2-(3-acetamidophenylamino)-4-(1-methyl-1H-indol-4-ylamino)pyrimidine-5-carboxamide] | 1 to 10 | 1 to 10 | 1 to 10 | 1 to 10
CCn1ccc2c(Nc3nc(Nc4cccc(NC(C)=O)c4)ncc3C(N)=O)cccc21 [Example 185, 2-(3-acetamidophenylamino)-4-(1-ethyl-1H-indol-4-ylamino)pyrimidine-5-carboxamide] | 10 to 100 | 10 to 100 | 1 to 10 | 1 to 10
CC(=O)Nc1cccc(Nc2ncc(C(N)=O)c(Nc3cccc4nn(C)cc34)n2)c1 [Example 186, 2-(3-acetamidophenylamino)-4-(2-methyl-2H-indazol-4-ylamino)pyrimidine-5-carboxamide] | > 1000 | 10 to 100 | 10 to 100 | > 1000
CC(=O)Nc1cccc(Nc2ncc(C(N)=O)c(NCc3ccccn3)n2)c1 [Example 187, 2-(3-acetamidophenylamino)-4-(pyridin-2-ylmethylamino)pyrimidine-5-carboxamide] | 100 to 1000 | 10 to 100 | 10 to 100 | 10 to 100
CC(=O)Nc1cccc(Nc2ncc(C(N)=O)c(NCc3cccnc3)n2)c1 [Example 188, 2-(3-acetamidophenylamino)-4-(pyridin-3-ylmethylamino)pyrimidine-5-carboxamide] | 100 to 1000 | 10 to 100 | 1 to 10 | 10 to 100
CC(=O)Nc1cccc(Nc2ncc(C(N)=O)c(NCc3ccncc3)n2)c1 [Example 189, 2-(3-acetamidophenylamino)-4-(pyridin-4-ylmethylamino)pyrimidine-5-carboxamide] | 100 to 1000 | 100 to 1000 | 10 to 100 | 10 to 100
CC(=O)Nc1cccc(Nc2ncc(C(N)=O)c(Nc3cccc4c3cnn4C)n2)c1 [Example 191, 2-(3-acetamidophenylamino)-4-(1-methyl-1H-indazol-4-ylamino)pyrimidine-5-carboxamide] | 10 to 100 | 10 to 100 | 1 to 10 | 10 to 100
CC(=O)Nc1cccc(Nc2ncc(C(N)=O)c(Nc3cccc4nsnc34)n2)c1 [Example 192, 2-(3-acetamidophenylamino)-4-(benzo[c][1,2,5]thiadiazo-4-ylamino)pyrimidine-5-carboxamide] | > 1000 | 10 to 100 | 1 to 10 | 10 to 100
CC(=O)Nc1cccc(Nc2ncc(C(N)=O)c(Nc3ccc(S(C)(=O)=O)cc3)n2)c1 [Example 197] | > 1000 | 10 to 100 | 10 to 100 | 10 to 100
CC(=O)Nc1cccc(Nc2ncc(C(N)=O)c(Nc3ccc(N4CCOCC4)c(F)c3)n2)c1 [Example 198] | > 1000 | 10 to 100 | 10 to 100 | 10 to 100
CC(=O)Nc1cccc(Nc2ncc(C(N)=O)c(Nc3cccc(-c4ncccn4)c3)n2)c1 [Example 199] | 10 to 100 | 10 to 100 | 10 to 100 | 10 to 100
CNC(=O)Nc1ccc(F)c(Nc2ncc(C(N)=O)c(NCc3ccccc3)n2)c1 [Example 200, 4-(benzylamino)-2-(2-fluoro-5-(3-methylureido)phenylamino)pyrimidine-5-carboxamide] | > 1000 | > 1000 | 10 to 100 | 100 to 1000
CN(C)C(=O)Nc1ccc(F)c(Nc2ncc(C(N)=O)c(NCc3ccccc3)n2)c1 [Example 201, 4-(benzylamino)-2-(5-(3,3-dimethylureido)-2-fluorophenylamino)pyrimidine-5-carboxamide] | > 1000 | > 1000 | 10 to 100 | 100 to 1000
NC(=O)c1cnc(Nc2cc(NC(=O)N3CCCC3)ccc2F)nc1NCc1ccccc1 [Example 204, 4-(benzylamino)-2-(2-fluoro-5-(pyrrolidine-1-carboxamido)phenylamino)pyrimidine-5-carboxamide] | 100 to 1000 | 100 to 1000 | 100 to 1000 | 100 to 1000
C[C@@H](Nc1nc(Nc2ccc(Cl)c(NC(=O)N3CCCCC3)c2)ncc1C(N)=O)c1ccccc1 [Example 205, (R)-2-(4-chloro-3-(piperidine-1-carboxamido)phenylamino)-4-(1-phenylethylamino)pyrimidine-5-carboxamide] | > 1000 | 100 to 1000 | 10 to 100 | 100 to 1000
NC(=O)c1cnc(Nc2cccc(NC(=O)[C@@H]3CCCO3)c2)nc1NCc1ccccc1 [Example 206, (S)-4-(benzylamino)-2-(3-(tetrahydrofuran-2-carboxamido)phenylamino)pyrimidine-5-carboxamide] | 10 to 100 | 10 to 100 | 1 to 10 | 1 to 10
C[C@@H](Nc1nc(Nc2cccc(NC(=O)[C@@H]3CCCO3)c2)ncc1C(N)=O)c1ccccc1 [Example 207, 4-((R)-1-phenylethylamino)-2-(3-((S)-tetrahydrofuran-2-carboxamido)phenylamino)pyrimidine-5-carboxamide] | 100 to 1000 | 10 to 100 | 1 to 10 | 10 to 100
C[C@@H](Nc1nc(Nc2cccc(NC(=O)N3CCC(O)CC3)c2)ncc1C(N)=O)c1ccccc1 [Example 215] | 10 to 100 | 10 to 100 | 1 to 10 | 10 to 100
C[C@@H](Nc1nc(Nc2cccc(NC(=O)N3CCCCC3)c2)ncc1C(N)=O)c1ccccc1 [Example 220, (R)-4-(1-phenylethylamino)-2-(3-(piperidine-1-carboxamido)phenylamino)pyrimidine-5-carboxamide] | 100 to 1000 | 10 to 100 | 1 to 10 | 10 to 100
CC(=O)Nc1cc(Nc2ncc(C(N)=O)c(NCc3cccc(F)c3)n2)ccc1OCCN1CCCC1 [Example 223, 2-(3-acetamido-4-(2-(pyrrolidin-1-yl)ethoxy)phenylamino)-4-(3-fluorobenzylamino)pyrimidine-5-carboxamide] | 10 to 100 | 1 to 10 | 1 to 10 | 10 to 100
CC(=O)Nc1cc(Nc2ncc(C(N)=O)c(Nc3cccc4nn(C)cc34)n2)ccc1OCCN1CCCC1 [Example 224, 2-(3-acetamido-4-(2-(pyrrolidin-1-yl)ethoxy)phenylamino)-4-(2-methyl-2H-indazol-4-ylamino)pyrimidine-5-carboxamide] | 100 to 1000 | 10 to 100 | 10 to 100 | 100 to 1000
CC(=O)Nc1cccc(Nc2ncc(C(N)=O)c(NCC3CCN(C(=O)OC(C)(C)C)C3)n2)c1 (stereo not shown) [Example 225, tert-butyl 3-((2-(3-acetamidophenylamino)-5-carbamoylpyrimidin-4-ylamino)methyl)pyrrolidine-1-carboxylate] | 100 to 1000 | 100 to 1000 | 10 to 100 | 100 to 1000
CC(=O)Nc1cccc(Nc2ncc(C(=O)O)c(NCC3CCNC3)n2)c1 (stereo not shown) [Example 226, 2-(3-acetamidophenylamino)-4-(pyrrolidin-3-ylmethylamino)pyrimidine-5-carboxylic acid] | 10 to 100 | 100 to 1000 | 10 to 100 | 100 to 1000
CC(=O)Nc1cc(Nc2ncc(C(N)=O)c(Nc3cccc4nsnc34)n2)ccc1OCCN1CCCC1 [Example 227, 2-(3-acetamido-4-(2-(pyrrolidin-1-yl)ethoxy)phenylamino)-4-(benzo[c][1,2,5]thiadiazo-4-ylamino)pyrimidine-5-carboxamide] | 10 to 100 | 1 to 10 | 1 to 10 | 10 to 100
CC(=O)Nc1cc(Nc2ncc(C(N)=O)c(NCc3cccc(F)c3)n2)ccc1OCCN(C)C [Example 228, 2-(3-acetamido-4-(2-(dimethylamino)ethoxy)phenylamino)-4-(3-fluorobenzylamino)pyrimidine-5-carboxamide] | 100 to 1000 | 10 to 100 | 1 to 10 | 10 to 100
CC(=O)Nc1cc(Nc2ncc(C(N)=O)c(Nc3cccc4nn(C)cc34)n2)ccc1OCCN(C)C [Example 229, 2-(3-acetamido-4-(2-(dimethylamino)ethoxy)phenylamino)-4-(2-methyl-2H-indazol-4-ylamino)pyrimidine-5-carboxamide] | > 1000 | 10 to 100 | 10 to 100 | 100 to 1000
CC(=O)Nc1cc(Nc2ncc(C(N)=O)c(Nc3cccc4nsnc34)n2)ccc1OCCN(C)C [Example 230, 2-(3-acetamido-4-(2-(dimethylamino)ethoxy)phenylamino)-4-(benzo[c][1,2,5]thiadiazo-4-ylamino)pyrimidine-5-carboxamide] | 10 to 100 | 1 to 10 | 1 to 10 | 10 to 100
